Data taken from publication PMC3493529, “Molecular and Pharmacological Characterization of Serotonin 5-HT2α and 5-HT7 Receptors in the Salivary Glands of the Blowfly Calliphora vicina” (PLoS ONE, 2012).
Where two headings read alike, the source gives them in different places.

How the values were obtained:
[1] = biological target: T1, Cv5-HT2α (Calliphora vicina, UniProt I7JA47); assay: Ca2+ signals (Fluo-4) in Cv5-HT2α-expressing HEK 293 cells, agonists; type: cell-based; conditions: 1 µM biogenic amine; non-transfected cells as control
T1 sequence (I7JA47 entry or part of it): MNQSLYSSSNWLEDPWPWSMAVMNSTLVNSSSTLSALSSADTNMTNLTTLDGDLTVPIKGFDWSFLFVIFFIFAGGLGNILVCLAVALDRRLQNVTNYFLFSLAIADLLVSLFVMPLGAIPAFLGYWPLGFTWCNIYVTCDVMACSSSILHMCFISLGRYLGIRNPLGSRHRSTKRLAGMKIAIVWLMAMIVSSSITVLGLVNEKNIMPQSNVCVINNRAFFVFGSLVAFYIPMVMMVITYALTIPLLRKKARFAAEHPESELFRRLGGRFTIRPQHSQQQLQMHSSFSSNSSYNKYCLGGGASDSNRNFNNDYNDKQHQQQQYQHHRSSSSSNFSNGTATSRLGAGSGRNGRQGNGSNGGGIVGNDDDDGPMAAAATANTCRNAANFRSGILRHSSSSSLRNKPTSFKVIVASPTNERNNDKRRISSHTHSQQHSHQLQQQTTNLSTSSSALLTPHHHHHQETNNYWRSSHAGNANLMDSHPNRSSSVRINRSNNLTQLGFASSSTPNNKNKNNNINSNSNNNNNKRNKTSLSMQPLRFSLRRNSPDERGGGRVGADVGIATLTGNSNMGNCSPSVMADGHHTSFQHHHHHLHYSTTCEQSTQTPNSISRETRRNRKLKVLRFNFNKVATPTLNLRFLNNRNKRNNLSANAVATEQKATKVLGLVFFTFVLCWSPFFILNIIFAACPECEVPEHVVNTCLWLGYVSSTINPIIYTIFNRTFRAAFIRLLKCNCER
Description: (§1) We applied a previously established protocol to generate cell lines that constitutively expressed either Cv5-HT2α or Cv5-HT7. […] (flpTM cells, provided by Sibion biosciences GmbH, Jülich, Germany). Approximately 8 µg of the respective expression vectors were introduced into ∼4×10^5 cells by a modified calcium-phosphate method. Stably transfected cells were selected in the presence of the antibiotics Blasticidin (0.1 mg/ml; Cv5-HT2α) or G418 (0.8 mg/ml; Cv5-HT7). Expression of Cv5-HT2α and Cv5-HT7 was monitored by Western blotting with commercially available anti-His antibodies (anti-6x His Epitope Tag; Rockland Immunochemicals Inc, Gilbertsville, USA) and anti-HA antibodies (clone 3F10; Roche, Penzberg, Germany), respectively.
The ability of Cv5-HT2α to induce Ca^2+ signals in the transfected cell line was measured with the Ca^2+-sensitive dye Fluo-4. Similarly, Cv5-HT7-induced cAMP production was indirectly monitored by the cAMP-dependent activation of the cyclic nucleotide-gated ion channel in flpTM cells (see above). The cyclic nucleotide-gated ion channel is permeable to Ca^2+ ions and thus an increase in [cAMP]i leads to an influx of Ca^2+ ions, which can be detected with Fluo-4. […] After 1 h, the loading solution was substituted for dye-free ES. To inhibit cAMP hydrolysis in Cv5-HT7-expressing cells, ES containing 100 µM isobutylmethylxanthine (IBMX) was used. Plates were transferred into a fluorescence reader (FLUOstar Omega; bmg, Offenburg, Germany) and Fluo-4 fluorescence was monitored. […] Fluorescence emission was detected at 520 nm. Once the basal fluorescence in each well had reached a stable value, various concentrations of the respective ligands were added. The resulting changes in Fluo-4 fluorescence were recorded automatically.

[2] = biological target: T1, Cv5-HT2α; assay: Inhibition of 5-HT-induced Ca2+ signals in Cv5-HT2α-expressing cells; type: cell-based
Description: as §1, with “Cv5-HT7. For Cv5-HT2α expression, human embryonic kidney cells (HEK 293; ECACC, Salisbury, UK) were chosen.” for “Cv5-HT7.”
(§2) The ability of Cv5-HT2α to induce Ca^2+ signals in the transfected cell line was measured with the Ca^2+-sensitive dye Fluo-4. Similarly, Cv5-HT7-induced cAMP production was indirectly monitored by the cAMP-dependent activation of the cyclic nucleotide-gated ion channel in flpTM cells (see above). The cyclic nucleotide-gated ion channel is permeable to Ca^2+ ions and thus an increase in [cAMP]i leads to an influx of Ca^2+ ions, which can be detected with Fluo-4. Cells were grown in 96-well plates to a density of ∼3×10^4 (Cv5-HT2α) or 1.5×10^4 (Cv5-HT7) and then incubated in extracellular solution (ES in mM: 120 NaCl, 5 KCl, 2 CaCl2, 2 MgCl2, 10 glucose, 10 HEPES, pH 7.4) containing 3 mM probenecid, 0.02% (w/v) Pluronic® F-127 (Sigma) and 2 µM Fluo-4AM (Invitrogen). After 1 h, the loading solution was substituted for dye-free ES. To inhibit cAMP hydrolysis in Cv5-HT7-expressing cells, ES containing 100 µM isobutylmethylxanthine (IBMX) was used. Plates were transferred into a fluorescence reader (FLUOstar Omega; bmg, Offenburg, Germany) and Fluo-4 fluorescence was monitored. The excitation wavelength was 485 nm. Fluorescence emission was detected at 520 nm. Once the basal fluorescence in each well had reached a stable value, various concentrations of the respective ligands were added. The resulting changes in Fluo-4 fluorescence were recorded automatically.
(§3) Changes in Ca^2+-dependent Fluo-4 signals were registered automatically. Data represent the means±SD of eight replicates. […] Relative fluorescence (%) is normalized to the values obtained with 100 nM 5-HT in the absence of antagonists. […] Relative fluorescence (%) is normalized to the values obtained with 6 nM 5-HT in the absence of antagonists.

[3] = biological target: Cv5-HT7 (Calliphora vicina, UniProt I7IA71); assay: Inhibition of 5-HT-induced Fluo-4 signals in Cv5-HT7-expressing cells; type: cell-based
Chain of Cv5-HT7 (I7IA71 entry or part of it): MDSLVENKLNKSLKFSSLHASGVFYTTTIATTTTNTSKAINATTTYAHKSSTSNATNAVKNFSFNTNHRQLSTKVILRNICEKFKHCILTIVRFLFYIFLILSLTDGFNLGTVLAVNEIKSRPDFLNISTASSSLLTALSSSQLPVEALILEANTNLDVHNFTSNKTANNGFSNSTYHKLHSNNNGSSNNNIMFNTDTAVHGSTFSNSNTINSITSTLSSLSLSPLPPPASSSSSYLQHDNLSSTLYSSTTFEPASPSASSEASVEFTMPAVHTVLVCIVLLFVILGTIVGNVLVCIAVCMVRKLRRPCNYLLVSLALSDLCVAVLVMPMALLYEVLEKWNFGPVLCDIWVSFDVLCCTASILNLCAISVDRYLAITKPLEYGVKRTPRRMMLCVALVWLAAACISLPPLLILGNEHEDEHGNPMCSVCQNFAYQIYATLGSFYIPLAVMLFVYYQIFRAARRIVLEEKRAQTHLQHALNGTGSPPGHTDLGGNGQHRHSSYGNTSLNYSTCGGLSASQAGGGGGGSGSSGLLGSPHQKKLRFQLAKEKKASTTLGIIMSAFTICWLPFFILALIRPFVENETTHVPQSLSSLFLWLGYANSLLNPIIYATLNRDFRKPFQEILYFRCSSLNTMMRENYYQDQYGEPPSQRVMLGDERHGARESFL
Description: as §1, with “Cv5-HT7. For Cv5-HT2α expression, human embryonic kidney cells (HEK 293; ECACC, Salisbury, UK) were chosen.” for “Cv5-HT7.”
as §2, §3

[4] = test system: blowfly salivary glands; assay: 5-HT-induced TEP response of blowfly salivary glands, antagonists; type: cell-based, Calliphora vicina; design: key to suppression of the positive TEP phase: ++: complete; +: incomplete; -: no apparent effect; -/+: variable effect; key to suppression of the negative TEP phase: ++: high amplitude; +: low amplitude; -: no apparent effect; -/+: variable effect; conditions: for reversibility / suppression of the negative TEP phase / suppression of the positive TEP phase: TEP response evoked with 10 nM or 30 nM 5-HT
Description: The abdominal portions of salivary glands were dissected in physiological saline (in mM: 128 NaCl, 10 KCl, 2 CaCl2, 2.7 MgCl2, 3 Na-glutamate, 2.8 maleic acid, 10 D-glucose and 10 Tris-HCl, pH 7.2). Measurements of transepithelial potential (TEP) were performed by the oil-gap method with a DPA-2F differential amplifier (npi Electronic Instruments, Tamm, Germany). Data were sampled and digitized at 1 Hz (KUSB-3102 module for AD-conversion; Keithley, Germering, Germany) by using the software TestPoint (v4.1; Capital Equipment Corp, Billerica, MA, USA) for data acquisition and storage.

[5] = in the presence of 100 nM 5-HT, read-out: Cv5-HT2α IC50
[6] = in the presence of 100 nM 5-HT, read-out: Cv5-HT2α log IC50 (converted)
[7] = in the presence of 6 nM 5-HT, read-out: Cv5-HT7 IC50
[8] = in the presence of 6 nM 5-HT, read-out: Cv5-HT7 log IC50 (converted)

For `NCCc1c[nH]cn1` [histamine], the “effect on [Ca2+]i in Cv5-HT2α-expressing cells” value [1] was “stimulated Ca^2+ signals”.

Compound `O=C(c1ccc(F)cc1)C1CCN(CCn2c(=O)[nH]c3ccccc3c2=O)CC1` [ketanserin] has an IC50 [2, 5] of 14 µM, an IC50 [2, 6] of 14.1 µM and an IC50 [3, 7] of 1.5 µM. The IC50 [3, 8] was 1.45 µM.

`CSc1ccc2c(c1)C(N1CCN(C)CC1)Cc1ccccc1S2` (stereo not drawn) [methiothepin] was tested, and the “Cv5-HT2α log IC50” value ([2]; in the presence of 100 nM 5-HT) was −5.92±0.06, the IC50 [2, 5] was 1.2 µM and the “antagonistic effect on Cv5-HT7” value ([3]; high concentrations (10 µM)) was “slight antagonistic effect”. The “Cv5-HT7 IC50” value ([3]; in the presence of 6 nM 5-HT) was “not calculable”, the “Cv5-HT7 log IC50” value ([3]; in the presence of 6 nM 5-HT) was “not calculable” and the reversibility ([4]; 3 µM) was “no”. For the same compound, the “suppression of the negative TEP phase” value ([4]; 3 µM) was “-/+”, the “suppression of the positive TEP phase” value ([4]; 3 µM) was “++” and the “effect on 5-HT-induced TEP response” value ([4]; ≥1 µM) was “completely abolished the positive TEP phase”.

For `Cc1ccc(N(CC2=NCCN2)c2cccc(O)c2)cc1` [phentolamine], the IC50 [2, 5] was 198 µM, the IC50 [2, 6] was 200 µM and the IC50 [3, 7] was 4.7 µM. For the same compound, the IC50 [3, 8] was 4.68 µM.

In the case of `O=C(CCCN1CCC2(CC1)C(=O)NCN2c1ccccc1)c1ccc(F)cc1` [spiperone], the “Cv5-HT2α IC50” value ([2]; in the presence of 100 nM 5-HT) is reported as “no effect”, the “Cv5-HT2α log IC50” value ([2]; in the presence of 100 nM 5-HT) is reported as “no effect” and the IC50 [3, 7] is reported as 0.28 µM. For the same compound, the IC50 [3, 8] was 0.275 µM, the reversibility ([4]; 1-10 µM) was “yes” and the “suppression of the negative TEP phase” value ([4]; 1-10 µM) was “-”. The “suppression of the positive TEP phase” value ([4]; 1-10 µM) was “+” and the “effect on 5-HT-induced TEP response” value ([4]; 1–10 µM) was “reversibly but incompletely inhibited the positive phase”.

In the case of `COC(=O)[C@@H]1[C@H]2C[C@H]3c4[nH]c5ccccc5c4CCN3C[C@@H]2CC[C@@H]1O` [yohimbine], the IC50 ([2]; Cv5-HT2α IC50, in the presence of 100 nM 5-HT) is reported as 2.9 µM, the IC50 ([2]; Cv5-HT2α log IC50, in the presence of 100 nM 5-HT) is reported as 2.88 µM and the IC50 ([3]; Cv5-HT7 IC50, in the presence of 6 nM 5-HT) is reported as 192 µM. For the same compound, the IC50 ([3]; Cv5-HT7 log IC50, in the presence of 6 nM 5-HT) was 191 µM.
